Laboratory results taken from the NIST ThermoML archive (doi:10.1016/j.jct.2009.07.002).

Assay: isobaric coefficient of expansion
Settings: Liquid, DSC with Pressure Shift

CCCCCCCCCO [nonan-1-ol]
isobaric coefficient of expansion
Settings	278.15 K	288.15 K	298.15 K	308.15 K	318.15 K	328.15 K	338.15 K	348.15 K
5000 kPa	0.000819 1/K	0.000805 1/K	0.000816 1/K	0.000829 1/K	0.000846 1/K	0.000863 1/K	0.000886 1/K	0.000912 1/K
10000 kPa	0.000795 1/K	0.000791 1/K	0.000798 1/K	0.00081 1/K	0.000826 1/K	0.00084 1/K	0.000858 1/K	0.000879 1/K
15000 kPa	0.000786 1/K	0.000772 1/K	0.000782 1/K	0.000792 1/K	0.000801 1/K	0.000815 1/K	0.000831 1/K	0.000853 1/K
20000 kPa	0.000759 1/K	0.000759 1/K	0.000762 1/K	0.000773 1/K	0.000785 1/K	0.000792 1/K	0.000807 1/K	0.000827 1/K
25000 kPa	0.000741 1/K	0.000743 1/K	0.000745 1/K	0.000753 1/K	0.000764 1/K	0.000775 1/K	0.000789 1/K	0.000806 1/K
30000 kPa	0.000733 1/K	0.000728 1/K	0.000732 1/K	0.000736 1/K	0.000748 1/K	0.000759 1/K	0.000773 1/K	0.000787 1/K
35000 kPa	0.000719 1/K	0.000716 1/K	0.00072 1/K	0.000723 1/K	0.000732 1/K	0.000743 1/K	0.000754 1/K	0.000768 1/K
40000 kPa	0.000704 1/K	0.000705 1/K	0.000705 1/K	0.00071 1/K	0.000715 1/K	0.000728 1/K	0.000736 1/K	0.000749 1/K
45000 kPa	0.000693 1/K	0.000698 1/K	0.000693 1/K	0.000695 1/K	0.000702 1/K	0.000715 1/K	0.000722 1/K	0.000734 1/K
50000 kPa	0.000685 1/K	0.000691 1/K	0.000682 1/K	0.000684 1/K	0.00069 1/K	0.0007 1/K	0.000708 1/K	0.000719 1/K
55000 kPa	0.000672 1/K	0.000677 1/K	0.000672 1/K	0.000673 1/K	0.000678 1/K	0.000687 1/K	0.000695 1/K	0.000705 1/K

CCCCCCCCO [octan-1-ol]
isobaric coefficient of expansion
Settings	278.15 K	288.15 K	298.15 K	308.15 K	318.15 K	328.15 K	338.15 K	348.15 K
5000 kPa	0.000816 1/K	0.000817 1/K	0.000818 1/K	0.00084 1/K	0.000859 1/K	0.000877 1/K	0.0009 1/K	0.000928 1/K
10000 kPa	0.000798 1/K	0.000793 1/K	0.000799 1/K	0.000821 1/K	0.000837 1/K	0.00085 1/K	0.000873 1/K	0.000896 1/K
15000 kPa	0.00078 1/K	0.000774 1/K	0.000784 1/K	0.000801 1/K	0.000815 1/K	0.000827 1/K	0.000845 1/K	0.000865 1/K
20000 kPa	0.000755 1/K	0.000761 1/K	0.000764 1/K	0.000783 1/K	0.000793 1/K	0.000805 1/K	0.000822 1/K	0.000843 1/K
25000 kPa	0.000742 1/K	0.000746 1/K	0.000749 1/K	0.000762 1/K	0.000775 1/K	0.000787 1/K	0.000801 1/K	0.000821 1/K
30000 kPa	0.00073 1/K	0.000732 1/K	0.000736 1/K	0.000746 1/K	0.000758 1/K	0.000767 1/K	0.000783 1/K	0.0008 1/K
35000 kPa	0.000717 1/K	0.000715 1/K	0.000724 1/K	0.00073 1/K	0.000742 1/K	0.000751 1/K	0.000766 1/K	0.00078 1/K
40000 kPa	0.000704 1/K	0.000707 1/K	0.000714 1/K	0.000716 1/K	0.000727 1/K	0.000735 1/K	0.000746 1/K	0.000762 1/K
45000 kPa	0.00069 1/K	0.000692 1/K	0.000698 1/K	0.000702 1/K	0.000711 1/K	0.000719 1/K	0.000731 1/K	0.000745 1/K
50000 kPa	0.000683 1/K	0.000681 1/K	0.000687 1/K	0.000692 1/K	0.000698 1/K	0.000705 1/K	0.000717 1/K	0.000731 1/K
55000 kPa	0.000673 1/K	0.000671 1/K	0.000676 1/K	0.000678 1/K	0.000688 1/K	0.000692 1/K	0.000705 1/K	0.000717 1/K

CCCCCO [pentan-1-ol]
isobaric coefficient of expansion
Settings	278.15 K	288.15 K	298.15 K	308.15 K	318.15 K	328.15 K	338.15 K	348.15 K
5000 kPa	0.000863 1/K	0.000873 1/K	0.000889 1/K	0.000908 1/K	0.000934 1/K	0.00096 1/K	0.001 1/K	0.00105 1/K
10000 kPa	0.000833 1/K	0.00085 1/K	0.000864 1/K	0.000883 1/K	0.000904 1/K	0.00093 1/K	0.000961 1/K	0.001 1/K
15000 kPa	0.000826 1/K	0.000831 1/K	0.000847 1/K	0.00086 1/K	0.000879 1/K	0.000899 1/K	0.000927 1/K	0.00096 1/K
20000 kPa	0.000805 1/K	0.000813 1/K	0.000825 1/K	0.000838 1/K	0.000853 1/K	0.000873 1/K	0.000899 1/K	0.000927 1/K
25000 kPa	0.000788 1/K	0.000795 1/K	0.000805 1/K	0.000816 1/K	0.00083 1/K	0.000849 1/K	0.000874 1/K	0.000899 1/K
30000 kPa	0.000778 1/K	0.000779 1/K	0.000788 1/K	0.000796 1/K	0.000814 1/K	0.000827 1/K	0.000847 1/K	0.000871 1/K
35000 kPa	0.000752 1/K	0.000761 1/K	0.000772 1/K	0.00078 1/K	0.000794 1/K	0.000809 1/K	0.000828 1/K	0.000849 1/K
40000 kPa	0.000742 1/K	0.000747 1/K	0.000757 1/K	0.000763 1/K	0.000776 1/K	0.00079 1/K	0.000806 1/K	0.000826 1/K
45000 kPa	0.000735 1/K	0.000735 1/K	0.000741 1/K	0.000748 1/K	0.000759 1/K	0.000772 1/K	0.000786 1/K	0.000807 1/K
50000 kPa	0.000719 1/K	0.000724 1/K	0.000729 1/K	0.000734 1/K	0.000745 1/K	0.000755 1/K	0.000773 1/K	0.000787 1/K
55000 kPa	0.000714 1/K	0.000713 1/K	0.000717 1/K	0.000721 1/K	0.000731 1/K	0.00074 1/K	0.000755 1/K	0.000768 1/K

CCCC(C)O (configuration not stated) [pentan-2-ol]
isobaric coefficient of expansion
Settings	278.15 K	288.15 K	298.15 K	308.15 K	318.15 K	328.15 K	338.15 K	348.15 K
5000 kPa	0.000883 1/K	0.000922 1/K	0.000961 1/K	0.00101 1/K	0.00106 1/K	0.0011 1/K	0.00114 1/K	0.00119 1/K
10000 kPa	0.000858 1/K	0.000896 1/K	0.000935 1/K	0.000983 1/K	0.00103 1/K	0.00107 1/K	0.00111 1/K	0.00115 1/K
15000 kPa	0.00084 1/K	0.00088 1/K	0.000914 1/K	0.000956 1/K	0.001 1/K	0.00103 1/K	0.00107 1/K	0.00111 1/K
20000 kPa	0.000827 1/K	0.000857 1/K	0.00089 1/K	0.000929 1/K	0.000971 1/K	0.00101 1/K	0.00105 1/K	0.00108 1/K
25000 kPa	0.000801 1/K	0.000842 1/K	0.000872 1/K	0.000909 1/K	0.000946 1/K	0.000983 1/K	0.00102 1/K	0.00105 1/K
30000 kPa	0.000789 1/K	0.000823 1/K	0.000851 1/K	0.000889 1/K	0.000923 1/K	0.000957 1/K	0.000991 1/K	0.00102 1/K
35000 kPa	0.000773 1/K	0.000805 1/K	0.000834 1/K	0.000868 1/K	0.000902 1/K	0.000933 1/K	0.000967 1/K	0.000995 1/K
40000 kPa	0.000756 1/K	0.000788 1/K	0.00081 1/K	0.00085 1/K	0.000879 1/K	0.000914 1/K	0.000941 1/K	0.00097 1/K
45000 kPa	0.000745 1/K	0.000775 1/K	0.000799 1/K	0.00083 1/K	0.00086 1/K	0.000889 1/K	0.00092 1/K	0.000946 1/K
50000 kPa	0.00073 1/K	0.000758 1/K	0.000784 1/K	0.000814 1/K	0.000841 1/K	0.000872 1/K	0.000899 1/K	0.000923 1/K
55000 kPa	0.000719 1/K	0.000745 1/K	0.000766 1/K	0.000793 1/K	0.000819 1/K	0.000844 1/K	0.000866 1/K	0.000888 1/K
